Several values for one entry are separate records, joined by “and”; a condition that tells them apart may be missing. Equal entries are not always repeated.
Test system: C. elegans (N2) complex I (NADH:ubiquinone oxidoreductase)
Test: biochemical
Format: biochemical
Conditions: wild-type C. elegans mitochondria
Procedure, shortened: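 Complex I rate: initial linear slope of A600 over 15 min, expressed as percent of solvent control. Triple freeze-thawed mitochondria (0.2 mg/mL) in KPi pH 7.5, BSA 3 mg/mL, NADH 80 μM, decylubiquinone 60 μM, DCIP 160 μM, antimycin A, KCN.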

In the case of `c1ccc2[nH]c(-c3cscn3)nc2c1` [Thiabendazole], the “percent (%) in vitro complex I activity relative to solvent control” value (0.125 µM, mean of replicates) is reported as 102.109%, the “percent (%) in vitro complex I activity relative to solvent control” value (0.125 µM, single replicate) is reported as 99.976% and 103.068% and 101.883% and 103.510% and the “percent (%) in vitro complex I activity relative to solvent control” value (0.313 µM, mean of replicates) is reported as 98.029%. The “percent (%) in vitro complex I activity relative to solvent control” value (0.313 µM, single replicate) was 96.436% and 97.421% and 98.637% and 99.622%, the “percent (%) in vitro complex I activity relative to solvent control” value (0.625 µM, mean of replicates) was 100.000% and the “percent (%) in vitro complex I activity relative to solvent control” value (0.625 µM, single replicate) was 100.000%. The “percent (%) in vitro complex I activity relative to solvent control” value (1.5 µM, mean of replicates) was 94.806%, the “percent (%) in vitro complex I activity relative to solvent control” value (1.5 µM, single replicate) was 99.025% and 95.797% and 89.075% and 95.328% and the “percent (%) in vitro complex I activity relative to solvent control” value (3 µM, mean of replicates) was 103.387%. The “percent (%) in vitro complex I activity relative to solvent control” value (3 µM, single replicate) was 101.704% and 108.843% and 104.258% and 98.742%, the “percent (%) in vitro complex I activity relative to solvent control” value (15 µM, mean of replicates) was 102.027% and the “percent (%) in vitro complex I activity relative to solvent control” value (15 µM, single replicate) was 100.357% and 106.821% and 103.640% and 97.291%. For the same molecule, the “percent (%) in vitro complex I activity relative to solvent control” value (37.5 µM, mean of replicates) was 98.201%, the “percent (%) in vitro complex I activity relative to solvent control” value (37.5 µM, single replicate) was 99.533% and 98.195% and 100.518% and 94.556% and the “percent (%) in vitro complex I activity relative to solvent control” value (75 µM, mean of replicates) was 97.767%. The “percent (%) in vitro complex I activity relative to solvent control” value (75 µM, single replicate) was 97.247% and 98.620% and 98.499% and 96.702%.
